From the OPERA property sets (Mansouri et al. 2018)
Where a SMILES comes first, the peptide text is derived from it.

**Q.** Which logP does the source give for `CCNC(=O)c1cccc2c1C(=O)C(=O)N(CC)C2=O` here?
**A.** 0.3

**Q.** With `C#CC1(OC(=O)C2=CN(C)C=CC2)CCC2C3CCC4=CC(=O)CCC4C3CCC21C` (stereo unspecified) as the molecule, how does the logP read?
**A.** 4.44

**Q.** Which logP does the source give for `CCOC(=O)c1ccc(N=NN(C)C)cc1` here?
**A.** 3.66

**Q.** Which logP does the source give for `CC(=O)OC1CC(OC2CCC3(C)C(CCC4C3CC(O)C3(C)C(C5=CC(=O)OC5)CCC43O)C2)OC(C)C1OC1CC(O)C(OC2CC(O)C(O)C(C)O2)C(C)O1` (stereo unspecified) here?
**A.** 1.71

**Q.** Which logP does the source give for `CC(=O)NC(CC(C)C)C(=O)NC(CCCCN)C(=O)NC(Cc1ccccc1)C(N)=O` (stereo not drawn) (Ac-Leu-Lys-Phe-NH2; configuration not given here) here?
**A.** 1.14

**Q.** Which logP does the source give for `Cc1cccc(C(=O)NN(C(=O)c2ccccc2Cl)C(C)(C)C)c1` here?
**A.** 3.11

**Q.** With `CS(=O)(=O)ON1C(=O)c2ccc(N)cc2C1=O` as the molecule, how does the logP read?
**A.** 0.8

**Q.** For `O=[N+]([O-])C=C1NCCN1Cc1cnc(Cl)s1`, which logP is on record?
**A.** -0.04

**Q.** For `Nc1ccn(C2OC3COC2C3O)c(=O)n1` (stereo unspecified), which logP is on record?
**A.** -1.64

**Q.** For `CN1C(=O)C(=O)c2ccccc2C1=O`, which logP is on record?
**A.** 0.6

**Q.** With `O=[N+]([O-])c1ccc2ccc3cccc4ccc1c2c34` as the molecule, how does the logP read?
**A.** 5.06

**Q.** For `Cc1cc(O)c(C)c(C)c1O`, which logP is on record?
**A.** 1.69

**Q.** With `CCCCCOc1ccccc1NC(=O)OCCN1CCOCC1` as the molecule, how does the logP read?
**A.** 3.7

**Q.** With `Cc1cc(=O)[nH]c(=O)[nH]1` as the molecule, how does the logP read?
**A.** -0.77

**Q.** For `Cc1nnc[nH]1`, which logP is on record?
**A.** -0.55

**Q.** With `CSCCC(NC(C)=O)C(=O)NC(C(N)=O)C(C)C` (stereo unspecified) as the molecule, how does the logP read?
**A.** -0.28

**Q.** With `CCOc1ccc(C2(C(=O)OC)CC2(Cl)Cl)cc1` (stereo unspecified) as the molecule, how does the logP read?
**A.** 4.1

**Q.** For `CC(C)CN1C(=O)NC(=O)C(=O)C1=O`, which logP is on record?
**A.** 0.76

**Q.** Which logP does the source give for `CCN(C=Nc1ccn(C2OC(CO)C(O)C2O)c(=O)n1)CC` (stereo unspecified) here?
**A.** -0.76

**Q.** Which logP does the source give for `CCN(CC)C(=O)N(C)SN(C)C(=O)ON=C(C)SC` here?
**A.** 3.2

**Q.** With `O=c1[nH]c(Nc2ccccc2)nc2c1ncn2C1CC(O)C(CO)O1` (stereo unspecified) as the molecule, how does the logP read?
**A.** 0.4

**Q.** For `CC(=O)Nc1ccnnc1`, which logP is on record?
**A.** -0.41

**Q.** With `O=C(O)C[N+]1([O-])CCN(C(=O)Cn2c(=O)sc3ccc(Cl)cc32)CC1` as the molecule, how does the logP read?
**A.** 0.21

**Q.** For `O=c1[nH]nc(SCc2ccccc2)[nH]1`, which logP is on record?
**A.** 1.47

**Q.** With `FC(F)(F)C1(F)C(F)(F)C(F)(F)C(F)(N2C(F)(F)C(F)(F)C(F)(F)C(F)(F)C2(F)F)C(F)(F)C1(F)F` (stereo unspecified) as the molecule, how does the logP read?
**A.** 7.1

**Q.** With `CN(C)CCC[N+]1([O-])c2ccccc2Sc2ccccc21` as the molecule, how does the logP read?
**A.** 1.9

**Q.** For `CCOC(=O)COC(=O)c1cc(Oc2ccc(C(F)(F)F)cc2Cl)ccc1[N+](=O)[O-]`, which logP is on record?
**A.** 3.65

**Q.** Which logP does the source give for `CNC(Cc1ccccc1)C(=O)O` (stereo unspecified) here?
**A.** -1.53

**Q.** With `Oc1cccc(Cl)n1` as the molecule, how does the logP read?
**A.** 0.93

**Q.** For `O=S1(=O)NC(C2CCCCC2)=Nc2ccccc21`, which logP is on record?
**A.** 2.2

**Q.** With `COc1ncnc2c1ncn2C1OC(CO)CC1F` (stereo unspecified) as the molecule, how does the logP read?
**A.** 0.25

**Q.** With `CCC(C)NC(=O)C=C(N)c1ccc(Cl)cc1` (stereo unspecified) as the molecule, how does the logP read?
**A.** 2.94

**Q.** For `C#CCOc1c(Cl)cc(NC=NOCCCC)cc1Cl`, which logP is on record?
**A.** 4.4

**Q.** Which logP does the source give for `O=C1CN=C(c2ccccc2)c2cc(C(F)(F)F)ccc2N1` here?
**A.** 3.1

**Q.** With `CN(C)N=Nc1cccc(C(N)=O)c1` as the molecule, how does the logP read?
**A.** 1.3

**Q.** With `CCOC(=O)C(C)Oc1ccc(Oc2cnc3cc(C(F)(F)F)ccc3n2)cc1` (stereo unspecified) as the molecule, how does the logP read?
**A.** 4.37

**Q.** For `CC12CCC(=O)C=C1CCC1C2CCC2(C)C1CCC2(O)C(O)CO` (stereo unspecified), which logP is on record?
**A.** 2

**Q.** Which logP does the source give for `Cc1nc([N+](=O)[O-])c(C)[nH]1` here?
**A.** 0.43

**Q.** With `C#CCOc1c(Cl)cc(NC=NOc2ccccc2)cc1Cl` as the molecule, how does the logP read?
**A.** 4.4

**Q.** Which logP does the source give for `Clc1cccc(-c2cc(Cl)c(Cl)c(Cl)c2Cl)c1Cl` here?
**A.** 7.32

**Q.** With `CCOC(CC)(OCC)OCC` as the molecule, how does the logP read?
**A.** 1.97

**Q.** With `CCCCOC(=O)c1cnc2n(c1=O)C(C)CCC2` (stereo unspecified) as the molecule, how does the logP read?
**A.** 1.77

**Q.** Which logP does the source give for `COC(=O)c1ccc2[nH]ccc2c1` here?
**A.** 2.58

**Q.** Which logP does the source give for `CC1(CO)COC(Cn2cncn2)(c2ccc(Cl)cc2Cl)OC1` (stereo unspecified) here?
**A.** 2.1

**Q.** With `CCC(=O)C1(c2cccc(O)c2)CCN(C)CC1` as the molecule, how does the logP read?
**A.** 1.02

**Q.** Which logP does the source give for `CN(C)CCn1nnnc1SCC1=C(C(=O)OCOC(=O)C(C)(C)C)N2C(=O)C(NC(=O)Cc3csc(N)n3)C2SC1` (stereo unspecified) here?
**A.** 1.57

**Q.** With `CCN1C(=O)C(=O)c2c(C#N)cccc2C1=O` as the molecule, how does the logP read?
**A.** 0.41

**Q.** For `Cc1ccc(CN2CCNC2=C[N+](=O)[O-])cn1`, which logP is on record?
**A.** -0.59

**Q.** Which logP does the source give for `CNC(=O)N(C)c1nnc(C(C)(C)C)s1` here?
**A.** 1.79

**Q.** Which logP does the source give for `Nc1ncnc2c1nc(F)n2C1CCC(CO)O1` (stereo unspecified) here?
**A.** -0.03

**Q.** For `Cn1nnnc1SCC1=C(C(=O)OCOC(=O)C(C)(C)C)N2C(=O)C(NC(=O)Cc3csc(N)n3)C2SC1` (stereo unspecified), which logP is on record?
**A.** 1.36
